In series [1] the test system is HCT-116. The series can be described thus: cells. The note with it: Homo sapiens, HCT-116, 72 h.
Series [2] addresses hERG (KCNH2) (Homo sapiens, UniProt Q12809). The series can be described thus: Inhibition of ERG in human HEK293 cells at 3 uM at -80 mV holding potential by whole-cell patch clamp assay relative to control. The format is cell-based. To be noted: HEK293 cells expressing ERG.
The target of series [3] is RAC-alpha serine/threonine-protein kinase (Homo sapiens, UniProt P31749).
Chain of RAC-alpha serine/threonine-protein kinase (P31749 whole entry): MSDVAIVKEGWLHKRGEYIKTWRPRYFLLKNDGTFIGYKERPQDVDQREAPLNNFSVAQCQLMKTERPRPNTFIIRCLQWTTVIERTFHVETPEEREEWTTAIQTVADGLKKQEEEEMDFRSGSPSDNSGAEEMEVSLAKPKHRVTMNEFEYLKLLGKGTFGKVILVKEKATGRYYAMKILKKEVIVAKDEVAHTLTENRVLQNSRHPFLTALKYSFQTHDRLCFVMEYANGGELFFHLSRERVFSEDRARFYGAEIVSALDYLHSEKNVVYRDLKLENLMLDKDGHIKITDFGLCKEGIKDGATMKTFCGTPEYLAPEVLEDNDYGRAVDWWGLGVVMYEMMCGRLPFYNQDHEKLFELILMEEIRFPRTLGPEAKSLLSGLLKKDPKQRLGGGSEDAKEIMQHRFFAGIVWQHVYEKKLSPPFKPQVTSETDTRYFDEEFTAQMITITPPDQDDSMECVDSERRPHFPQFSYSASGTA
Description: Inhibition of human Akt1 expressed in Escherichia coli using STK Substrate 2-biotin as substrate incubated for 1 hr by HTRF assay
Series [4] has as its system LNCaP. Description: Antiproliferative activity against human LNCAP cells. The format is functional, cell-based.
Series [5] deals with OVCAR-8. The series can be described thus: Antiproliferative activity against human OVCAR8 cells. In kind it is functional, cell-based.
Series [6] concerns SK-OV-3. Description: Antitumor activity against human SKOV3 cells xenografted in BALB/c nude mouse assessed as tumor growth inhibition at 60 mg/kg, po administered once daily for 21 days relative to control. The format is functional. The note with it: SK-OV-3, po, 504 h, read-out: TGI.
In series [7] the target is Ribosomal protein S6 kinase beta-1 (Homo sapiens, UniProt P23443). The series can be described thus: Inhibition of human P70S6K by mobility shift assay.
Chain of Ribosomal protein S6 kinase beta-1 (P23443 whole entry): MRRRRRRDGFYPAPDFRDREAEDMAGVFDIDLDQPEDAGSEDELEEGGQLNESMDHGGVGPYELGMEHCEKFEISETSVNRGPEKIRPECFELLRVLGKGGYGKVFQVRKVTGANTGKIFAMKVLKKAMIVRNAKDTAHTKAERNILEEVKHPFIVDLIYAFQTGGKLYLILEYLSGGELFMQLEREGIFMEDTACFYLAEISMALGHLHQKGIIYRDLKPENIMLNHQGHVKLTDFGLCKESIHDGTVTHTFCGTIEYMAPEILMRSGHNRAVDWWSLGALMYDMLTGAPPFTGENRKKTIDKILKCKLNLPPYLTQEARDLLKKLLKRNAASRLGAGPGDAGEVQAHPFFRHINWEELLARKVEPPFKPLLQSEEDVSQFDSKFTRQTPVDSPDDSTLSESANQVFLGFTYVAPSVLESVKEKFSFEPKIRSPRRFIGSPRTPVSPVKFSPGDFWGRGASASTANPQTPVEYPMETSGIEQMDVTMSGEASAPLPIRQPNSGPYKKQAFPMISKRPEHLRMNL
The target of series [8] is Ribosomal protein S6 kinase alpha-1 (Homo sapiens, UniProt Q15418). Description: Inhibition of RSK1 (unknown origin) by mobility shift assay.
Chain of Ribosomal protein S6 kinase alpha-1 (Q15418 whole entry): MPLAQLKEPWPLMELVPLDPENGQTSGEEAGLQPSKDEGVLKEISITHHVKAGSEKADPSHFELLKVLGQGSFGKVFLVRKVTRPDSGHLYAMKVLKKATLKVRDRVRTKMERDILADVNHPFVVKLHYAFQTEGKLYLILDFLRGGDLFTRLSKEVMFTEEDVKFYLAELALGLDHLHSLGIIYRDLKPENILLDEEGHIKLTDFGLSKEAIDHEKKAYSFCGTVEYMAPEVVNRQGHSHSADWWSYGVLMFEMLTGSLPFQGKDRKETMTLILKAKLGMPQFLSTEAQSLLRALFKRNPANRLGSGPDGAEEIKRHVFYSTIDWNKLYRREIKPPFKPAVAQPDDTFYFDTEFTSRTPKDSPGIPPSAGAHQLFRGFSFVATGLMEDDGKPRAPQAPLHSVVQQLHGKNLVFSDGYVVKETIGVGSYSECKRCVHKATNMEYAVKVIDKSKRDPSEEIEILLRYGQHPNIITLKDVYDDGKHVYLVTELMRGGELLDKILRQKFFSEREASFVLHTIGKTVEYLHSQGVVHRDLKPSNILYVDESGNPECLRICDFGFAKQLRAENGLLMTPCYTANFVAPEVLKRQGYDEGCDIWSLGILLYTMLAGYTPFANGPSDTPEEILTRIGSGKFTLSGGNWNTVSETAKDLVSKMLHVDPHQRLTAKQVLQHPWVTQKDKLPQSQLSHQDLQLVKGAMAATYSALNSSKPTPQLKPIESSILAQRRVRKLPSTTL
Series [9] concerns the target T1, Serine/threonine-protein kinase Sgk1 (Homo sapiens, UniProt O00141).
T1 sequence (O00141 whole entry): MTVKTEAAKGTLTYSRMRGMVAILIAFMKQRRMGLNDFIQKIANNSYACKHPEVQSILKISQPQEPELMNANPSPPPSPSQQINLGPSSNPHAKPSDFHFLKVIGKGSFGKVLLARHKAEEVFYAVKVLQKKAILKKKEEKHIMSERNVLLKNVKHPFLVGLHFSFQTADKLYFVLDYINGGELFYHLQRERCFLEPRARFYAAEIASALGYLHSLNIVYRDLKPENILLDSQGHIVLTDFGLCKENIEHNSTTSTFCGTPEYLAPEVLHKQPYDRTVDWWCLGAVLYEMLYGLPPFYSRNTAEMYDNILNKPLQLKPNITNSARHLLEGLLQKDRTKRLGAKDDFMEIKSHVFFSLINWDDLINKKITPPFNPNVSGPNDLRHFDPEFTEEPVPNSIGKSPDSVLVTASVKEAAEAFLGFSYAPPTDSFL
The series can be described thus: Inhibition of human SGK by mobility shift assay.

Series [10] is described as follows: Toxicity in BALB/c nude mouse xenografted with human SKOV3 cells assessed as reduction in mouse survival at 60 to 80 mg/kg, po administered once daily for 21 days. The format is organism-based. The note with it: in vivo, 504 h.
Series [11] in a line: Inhibition of recombinant His-tagged human PKA expressed in Escherichia coli using Ser/Thr 01 as substrate after 1 hr by Z-lyte assay.
Series [12] can be described thus: Toxicity in BALB/c nude mouse xenografted with human SKOV3 cells assessed as effect on body weight at 60 to 80 mg/kg, po administered once daily for 21 days. The format is organism-based. The note with it: in vivo, 504 h.

Each structure is given as a SMILES string.

Chain of hERG (KCNH2) (Q12809 whole entry): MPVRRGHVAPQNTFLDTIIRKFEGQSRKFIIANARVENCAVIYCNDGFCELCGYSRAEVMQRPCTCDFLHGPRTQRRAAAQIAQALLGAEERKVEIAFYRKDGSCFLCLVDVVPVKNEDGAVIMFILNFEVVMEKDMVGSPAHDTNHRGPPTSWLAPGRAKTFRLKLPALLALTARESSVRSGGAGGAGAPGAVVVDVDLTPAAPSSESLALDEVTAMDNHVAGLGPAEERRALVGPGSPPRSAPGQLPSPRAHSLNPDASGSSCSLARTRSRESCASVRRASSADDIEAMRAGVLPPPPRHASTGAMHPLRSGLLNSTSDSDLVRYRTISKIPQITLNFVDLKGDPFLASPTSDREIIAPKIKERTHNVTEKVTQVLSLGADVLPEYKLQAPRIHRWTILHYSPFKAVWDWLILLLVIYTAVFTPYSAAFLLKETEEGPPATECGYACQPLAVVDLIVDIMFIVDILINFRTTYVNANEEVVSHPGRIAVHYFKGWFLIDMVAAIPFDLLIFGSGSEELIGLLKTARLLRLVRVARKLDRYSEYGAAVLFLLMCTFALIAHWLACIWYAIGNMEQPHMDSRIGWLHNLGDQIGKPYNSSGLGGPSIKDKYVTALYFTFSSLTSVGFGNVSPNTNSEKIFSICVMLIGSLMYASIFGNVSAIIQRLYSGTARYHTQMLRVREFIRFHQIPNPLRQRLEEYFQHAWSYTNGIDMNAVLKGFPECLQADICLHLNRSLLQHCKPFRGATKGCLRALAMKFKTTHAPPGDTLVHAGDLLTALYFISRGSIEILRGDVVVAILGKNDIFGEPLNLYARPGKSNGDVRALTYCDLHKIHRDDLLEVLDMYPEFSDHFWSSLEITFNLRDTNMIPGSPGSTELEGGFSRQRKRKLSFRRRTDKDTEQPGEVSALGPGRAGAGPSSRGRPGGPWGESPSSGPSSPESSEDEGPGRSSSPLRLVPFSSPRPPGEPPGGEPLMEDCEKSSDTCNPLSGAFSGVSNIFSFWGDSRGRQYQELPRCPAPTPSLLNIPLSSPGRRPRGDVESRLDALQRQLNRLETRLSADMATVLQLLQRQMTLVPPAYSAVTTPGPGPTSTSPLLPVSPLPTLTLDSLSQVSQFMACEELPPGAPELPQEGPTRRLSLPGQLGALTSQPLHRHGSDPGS

With `CN(C)CC[C@@H]1C[C@@H](c2ccc(Cl)c(Cl)c2)[C@H](NC(=O)c2cc(-c3c(Cl)cnn3C)c(Cl)o2)CN1`, the concentration for half-maximal inhibition (IC50) was determined as 1710 nM in [1], 3.4 nM in [3], 1930 nM in series [4] and 1510 nM in series [5]. In [2], the inhibition at 3 µM turned out to be 73.4%.

With `CC(=O)NCC[C@@H]1C[C@@H](c2ccc(F)c(F)c2)[C@H](NC(=O)c2cc(-c3c(Cl)cnn3C)c(Cl)o2)CN1`, the IC50 in series [1] came out at 920 nM; in series [3], 2.49 nM; in series [4], 130 nM; in [5] it was 880 nM. Besides, the inhibition at 3 µM in series [2] came out at 7.4%.

For `Cn1ncc(Cl)c1-c1cc(C(=O)N[C@@H]2CN[C@H](CCNS(C)(=O)=O)C[C@H]2c2ccc(F)c(F)c2)oc1Cl`, the IC50 in [1] was found to be 920 nM; in series [3], 3.29 nM; in series [4], 50 nM; in [5], 1530 nM. Also, 3 µM produced 8% inhibition in series [2].

In the case of `Cn1ncc(Cl)c1-c1cc(C(=O)N[C@@H]2CN[C@H](CCN3CCCCC3)C[C@H]2c2ccc(Cl)c(Cl)c2)oc1Cl`, the IC50 stood at 1020 nM in series [1], 5.65 nM in series [3], 1780 nM in [4] and 1660 nM in series [5]. The same molecule yielded an inhibition at 3 µM in [2] of 93.1%.

For the molecule `Cn1cc(-c2c(Br)cnn2C)cc1C(=O)N[C@@H]1CNCC[C@H]1c1ccc(Cl)cc1`, the 50% inhibitory concentration (IC50) is 8700 nM in series [1], 255 nM in series [3] and 3030 nM in series [5]. In [2], 3 µM produced 63.8% inhibition.

For the molecule `CCC[C@@H]1C[C@@H](c2ccc(Cl)c(Cl)c2)[C@H](NC(=O)c2cc(-c3c(Cl)cnn3C)c(Cl)o2)CN1`, the IC50 worked out at 1020 nM in series [1], 10.4 nM in series [3] and 1620 nM in series [5]. This molecule returned an inhibition at 3 µM in series [2] of 85.3%.

`Cn1ncc(Cl)c1-c1ccc(C(=O)N[C@@H]2CNCC[C@H]2c2cccc(F)c2)cc1` returned an inhibition at 3 µM in series [2] of 10.7%. Further, the half-maximal inhibitory concentration (IC50) in [3] was 72.3 nM; in series [5], 5820 nM.

Turning to `Cn1ncc(Cl)c1-c1cc(C(=O)N[C@@H]2CN[C@H](CCN3CCC(O)CC3)C[C@H]2c2ccc(Cl)c(Cl)c2)oc1Cl`, the IC50 is 13700 nM in series [1], 5.99 nM in series [3], 1140 nM in series [4] and 15900 nM in [5]. This molecule showed an inhibition at 3 µM in series [2] of 12%.

With `CNC(=O)C[C@@H]1C[C@@H](c2ccc(Cl)c(Cl)c2)[C@H](NC(=O)c2cc(-c3c(Cl)cnn3C)c(Cl)o2)CN1`, the concentration for half-maximal inhibition (IC50) in [1] stood at 450 nM; in [3], 2.64 nM; in series [4], 40 nM; in series [5] it was 1130 nM. Also, in series [2], the inhibition at 3 µM worked out at 45.9%.

`Cn1ncc(Cl)c1-c1cc(C(=O)N[C@@H]2CN[C@H](CCN3CCOCC3)C[C@H]2c2ccc(Cl)c(Cl)c2)oc1Cl`: the IC50 in series [1] is 1560 nM; in [3], 8.78 nM; in [4], 410 nM; in [5], 1760 nM. In series [2], this molecule gave an inhibition at 3 µM of 82.3%.

For `Cn1ncc(Cl)c1-c1cc(C(=O)N[C@@H]2CNCC[C@H]2c2ccc(Cl)c(Cl)c2)oc1Cl`, the IC50 amounted to 280 nM in series [1], 2.9 nM in series [3], 100 nM in series [4] and 110 nM in series [5]. The molecule also came in with an inhibition at 3 µM in series [2] of 87%.

For the molecule `Cn1ncc(Cl)c1-c1cc(C(=O)N[C@@H]2CN[C@H](CC(=O)NCCO)C[C@H]2c2ccc(Cl)c(Cl)c2)oc1Cl`, the IC50 in series [1] amounted to 670 nM; in series [3], 1.41 nM; in series [4], 40 nM; in series [5], 1450 nM. In series [2], this molecule showed an inhibition at 3 µM of 6.7%.

Consider `Cn1ncc(Cl)c1-c1cc(C(=O)N[C@@H]2CN[C@H](CC(N)=O)C[C@H]2c2ccc(Cl)c(Cl)c2)oc1Cl`, for which the IC50 in series [1] was determined as 650 nM; in series [3] it was 3.24 nM; in series [4], 160 nM; in [5], 1000 nM. Further, 3 µM produced 15.7% inhibition in [2].

As to `Cn1ncc(Cl)c1-c1cc(C(=O)N[C@@H]2CN[C@H](CC(=O)NC3CC3)C[C@H]2c2ccc(Cl)c(Cl)c2)oc1Cl`, the IC50 in series [1] stood at 740 nM; in series [3], 3.95 nM; in [4] it was 190 nM; in [5], 580 nM. In series [2], this molecule returned an inhibition at 3 µM of 70.4%.

For the molecule `Cn1ncc(Cl)c1-c1cc(C(=O)N[C@H](CN)Cc2ccc(F)c(F)c2)oc1Cl` [UPROSERTIB], the inhibition in vivo at 60 mg/kg in [6] is 63.3%. The IC50 is 720 to 1270 nM in series [1]; 60 nM in series [7]; 339 nM in [8]; 211 nM in [9]; 70 nM in series [4]; 0.6 nM in series [11]. Also, the IC50 in series [5] was 240 to 1320 nM. This molecule came in with an inhibition at 3 µM in series [2] of 50 to 50.2%. Also, the Activity result in series [10] and in series [12] was “Non-Toxic” throughout.

Regarding `Cn1ncc(Cl)c1-c1cc(C(=O)N[C@@H]2CN[C@H](CC(=O)O)C[C@H]2c2ccc(Cl)c(Cl)c2)oc1Cl`, the IC50 was 4020 nM in series [1], 1.94 nM in [3], 640 nM in series [4] and 5120 nM in series [5]. Also, 3 µM produced 9.1% inhibition in [2].

Regarding `Cn1ncc(Cl)c1-c1cc(C(=O)N[C@@H]2CN[C@H](CC(O)CO)C[C@H]2c2ccc(Cl)c(Cl)c2)oc1Cl` (stereo partly specified), the concentration for half-maximal inhibition (IC50) worked out at 1110 nM in [1], 3.79 nM in series [3], 70 nM in series [4] and 1610 nM in series [5]. This molecule displayed an inhibition at 3 µM in series [2] of 17%.

As to `Cn1ncc(Cl)c1-c1cc(C(=O)N[C@@H]2CN[C@H](CCO)C[C@H]2c2ccc(Cl)c(Cl)c2)oc1Cl`, the IC50 amounted to 340 nM in series [1], 2.74 nM in series [3], 160 nM in series [4] and 610 nM in [5]. The molecule also had an inhibition at 3 µM in series [2] of 51.8%.

As for `Cn1nccc1-c1ccc(C(=O)N[C@@H]2CNCC[C@H]2c2ccc(F)c(F)c2)cc1`, the half-maximal inhibitory concentration (IC50) in series [1] came out at 3720 nM; in series [3], 21.6 nM; in series [5], 5330 nM. In addition, the inhibition at 3 µM in series [2] was 25%.

With `Cn1ncc(Cl)c1-c1cc(C(=O)N[C@@H]2CN[C@H](CC(O)CO)C[C@H]2c2ccc(F)c(F)c2)oc1Cl` (stereo partly specified), the half-inhibitory concentration (IC50) in series [1] worked out at 800 nM; in [3], 3.31 nM; in series [4], 100 nM; in series [5], 690 nM. Besides, 3 µM produced 4.7% inhibition in [2].

As to `Cn1ncc(Cl)c1-c1cc(C(=O)N[C@@H]2CN[C@H](CCn3cncn3)C[C@H]2c2ccc(Cl)c(Cl)c2)oc1Cl`, the IC50 in series [1] was found to be 560 nM; in [3] it was 4.47 nM; in series [4], 60 nM; in series [5] it was 1560 nM. The molecule also returned an inhibition at 3 µM in series [2] of 50.1%.

For `Cn1ncc(Cl)c1-c1cc(C(=O)N[C@@H]2CN[C@H](CCCO)C[C@H]2c2ccc(Cl)c(Cl)c2)oc1Cl`, the IC50 in [1] was 510 nM; in series [3] it was 2.56 nM; in series [4], 210 nM; in series [5], 600 nM. Besides, at 3 µM the inhibition in series [2] was 72%.

For the origin of these results see ChEMBL document CHEMBL4406807, “Discovery of 3,4,6-Trisubstituted Piperidine Derivatives as Orally Active, Low hERG Blocking Akt Inhibitors via Conformational Restriction and Structure-Based Design” (J Med Chem, 2019).
